Assay results taken from publication doi:10.1101/695973v1 (biorxiv, 2019).
Where two headings read alike, the source gives them in different places.

How the values were obtained:
[1] = tested on: β-lactamase Mm3; assay: spectrophotometric hydrolysis at […] nm, initial rates, Michaelis-Menten fit; assay type: biochemical, uncultured bacterium; conditions: 20 mM sodium phosphate, 0.2 M NaCl, pH 7.4, 30°C
[2] = tested on: β-lactamase Mm3; conditions: 20 mM sodium phosphate, 0.2 M NaCl, pH 7.4, 30°C; Hill equation, nH 2.36

Row | SMILES | Km [1] [µM] | Km [2] [µM]
1 | CC1(C)S[C@@H]2[C@H](NC(=O)C(C(=O)O)c3ccccc3)C(=O)N2[C@H]1C(=O)O (some centres unmarked) [carbenicillin] | 400 ± 42.7 | –
2 | CC1(C)S[C@@H]2[C@H](NC(=O)[C@H](N)c3ccccc3)C(=O)N2[C@H]1C(=O)O [ampicillin] | – | 271 ± 16.4
